Assay results taken from patent US8722712B2, “Substituted aryl 1 ,2,4-oxadiazoles derivatives as sphingosine-1 phosphate receptors modulators” (Allergan, Inc., priority 2012, dated 2014).

biological target: T1, human S1P1 receptor (Homo sapiens, UniProt P21453); assay: GTP γ35S binding assay for S1P1 activity; type: biochemical; conditions: membranes of cells stably expressing the S1P1 receptor, test compounds 0.08 to 5,000 nM
T1 construct: expressed in transfected cells; membranes used
Experimental: Compounds were synthesized and tested for S1P1 activity using the GTP γ^355 binding assay. These compounds may be assessed for their ability to activate or block activation of the human S1P1 receptor in cells stably expressing the S1P1 receptor.
[…] binding was measured in the medium containing (mM) HEPES 25, pH 7.4, MgCl2 10, NaCl 100, dithitothreitol 0.5, digitonin 0.003%, 0.2 nM GTP γ^35S, and 5 μg membrane protein in a volume of 150 μl. Test compounds were included in the concentration range from 0.08 to 5,000 nM unless indicated otherwise. Membranes were incubated with 100 μM 5′-adenylylimmidodiphosphate for 30 min, and subsequently with 10 μM GDP for 10 min on ice. Drug solutions and membrane were mixed, and then reactions were initiated by adding GTP γ^35S and continued for 30 min at 25° C. Reaction mixtures were filtered over Whatman GF/B filters under vacuum, and washed three times with 3 mL of ice-cold buffer (HEPES 25, pH7.4, MgCl2 10 and NaCl-100). Filters were dried and mixed with scintillant, and counted for ^35S activity using a […]. Agonist-induced GTP γ^35S binding was obtained by subtracting that in the absence of agonist. Binding data were analyzed using a non-linear regression method. In case of antagonist assay, the reaction mixture contained 10 nM […] in the presence of test antagonist at concentrations ranging from 0.08 to 5000 nM.

T1 sequence (P21453 whole entry): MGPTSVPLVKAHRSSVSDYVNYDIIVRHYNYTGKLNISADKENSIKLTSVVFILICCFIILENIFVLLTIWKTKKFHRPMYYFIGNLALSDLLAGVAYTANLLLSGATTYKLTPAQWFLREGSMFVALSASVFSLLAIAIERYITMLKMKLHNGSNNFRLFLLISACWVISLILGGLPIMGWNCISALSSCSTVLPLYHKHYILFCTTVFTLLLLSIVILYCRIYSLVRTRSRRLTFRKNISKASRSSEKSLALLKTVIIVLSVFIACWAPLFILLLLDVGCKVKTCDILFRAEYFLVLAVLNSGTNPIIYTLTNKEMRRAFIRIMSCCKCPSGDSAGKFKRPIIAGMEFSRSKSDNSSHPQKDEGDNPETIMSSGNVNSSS

SMILES	EC50 [nM]
O=P(O)(O)CCCNCc1ccc(-c2noc(CCCCc3ccccc3)n2)c(F)c1 [Compound 2, [3-({3-Fluoro-4-[5-(4-phenylbutyl)-1,2,4-oxadiazol-3-yl]benzyl}amino)propyl]phosphonic acid]	23.8
O=P(O)(O)CCCNCc1ccc(-c2noc(CCCCc3ccccc3)n2)cc1 [Compound 4, [3-({4-[5-(4-Phenylbutyl)-1,2,4-oxadiazol-3-yl]benzyl}amino)propyl]phosphonic acid]	63.1
CCc1cc(-c2noc(CCCCc3ccccc3)n2)ccc1CNCCCP(=O)(O)O [Compound 1, [3-({2-Ethyl-4-[5-(4-phenylbutyl)-1,2,4-oxadiazol-3-yl]benzyl}amino)propyl]phosphonic acid]	79.2
O=C(O)CCNCc1ccc(-c2noc(CCCCc3ccccc3)n2)cc1 [3-({4-[5-(4-Phenylbutyl)-1,2,4-oxadiazol-3-yl]benzyl}amino)propanoic acid]	606
O=P(O)(O)CCCNCc1ccc(-c2noc(CCCCc3ccccc3)n2)c(Br)c1 [Compound 3, [3-({3-Bromo-4-[5-(4-phenylbutyl)-1,2,4-oxadiazol-3-yl]benzyl}amino)propyl]phosphonic acid]	16.9
O=P(O)(O)CCCNCc1ccc(-c2noc(CCCCc3ccccc3)n2)c(-c2ccco2)c1 [Compound 7, [3-({3-(2-Furyl)-4-[5-(4-phenylbutyl)1,2,4-oxadiazol-3-yl]benzyl}amino)propyl]phosphonic acid]	217
